# Read-outs that look alike come from different tables or passages of the source.
# Legend:
# [1] = tested on: Astroglial cells derived from the mouse forebrain; test: Synthesis-stimulating activity on NGF (NGF level in culture medium by enzyme immunoassay); assay type: cell-based; settings: Mus musculus, 24 h; for fold induction at 2 µg/mL / fold induction at 50 µg/mL: read-out: Synthesis-Stimulating Activity on NGF
# Procedure: The activity of accelerating secretion of NGF was evaluated by the following method.
# Each compound shown in Table 1 was dissolved in dimethylsulfoxide (DMSO) to adjust the concentration in the range of 2 mg/ml to 10 mg/ml.
# Astroglial cells derived from the mouse forebrain (cells that synthesize and secrete NGF)
# Astroglial cells obtained from the mouse forebrain were cultured into 8 x 10⁵ cells/ml in Dulbecco's modified Eagle's medium obtained from Gibco, glucose-rich, containing 20% fetal calf serum, 100 units/ml of penicillin and 100 µg/ml of streptomycin. A 0.1 ml/well aliquot was inoculated on a 96-well plate obtained from Falcon and having an area of 0.32 cm² per well and cultured at 37°C in an atmosphere of 5% CO₂. The culture medium was removed 72 hours later and instead, a 0.1 ml/well aliquot of fresh Dulbecco's modified Eagle's medium containing 0.5% bovine albumin powders obtained from Armour, 100 units/ml of penicillin and 100 µg/ml of streptomycin was supplemented to the system followed by culturing at 37°C in 5% CO₂. The above medium containing the compound each having various concentrations was exchanged 72 hours later. For the purpose of comparison, the medium which contains only DMSO was also prepared (control).
# The synthesis-stimulating activity on NGF by the compound of the present invention is shown in terms of a ratio when the NGF level in the control containing only DMSO was made 1.0.
# [2] = tested on: Cerebral cortical neuronal cells from an 18-day-old rat embryo; test: Test on neurotrophic activity (living cells counted by fluorescein diacetate fluorescence, with or without hypoxic load); assay type: cell-based
# Procedure: The neurotrophic activity was determined by the following method. Each compound was dissolved in DMSO to adjust the concentration in the range of 2 mg/ml to 10 mg/ml. Cerebral cortical neuronal cells from an 18-day-old rat embryo […] After 24 hours of incubation, the culture medium was removed and a 0.5 ml/well aliquot of a serum-free fresh DF medium containing the respective compounds having various concentrations, 5 µg/ml of transferrin, 5 µg/ml of insulin and 20 pmoles/ml of progesterone was supplemented to the system. For the purpose of comparison, the medium containing only DMSO was added was also prepared. At this stage, the two same plates were used. After 72 hours of incubation in various medium, hypoxia was loaded on one plate by reducing the concentration of oxygen to the minimum concentration of 1% using a N₂-O₂-CO₂ incubator (manufactured by Tabai, Model BNP-100) and culturing for 4 hours under the conditions. Another plate was cultured in an atmosphere of 5% CO₂ and 95% air, without hypoxic load. After the incubation was continued for further 48 hours, living cells were counted. The culture medium was removed and fluorescein diacetate (FDA) reagent was reacted. After washing with phosphate buffer, pH 7.4, the fluorescent intensity (E x 485/Em 530) was measured by CytoFlour^TM 2300, manufactured by Millipore.
# [3] = no hypoxic load, ratio of fluorescent intensity to DMSO control = 1.0, read-out: Neurotrophic Activity No Hypoxic Load
# [4] = 4 h, hypoxic load (1% oxygen, 4 hours), ratio of fluorescent intensity to DMSO control = 1.0, read-out: Neurotrophic Activity Hypoxic Load
# [5] = 2 µg/ml, ratio to DMSO control = 1.0, 24 hours
# [6] = 50 µg/ml, ratio to DMSO control = 1.0, 24 hours
smiles,measurement,setting,value
c1ccc(-c2cccc(-c3ccccn3)n2)nc1 [Compound 1],fold induction at 1 µg/mL,"[1]; 1 µg/ml, ratio to DMSO control = 1.0",2.3
same,fold induction at 5 µg/mL,[1]; ratio to DMSO control = 1.0,3.5
same,viability at 2 µg/mL,[2]; [3],270%
same,viability at 10 µg/mL,[2]; [3],320%
same,viability at 2 µg/mL,[2]; [4],140%
same,viability at 10 µg/mL,[2]; [4],220%
"c1ccc(-c2cc(-c3ccccn3)nc(-c3ccccn3)c2)cc1 [Compound 2, 4'-Phenyl-2,2':6',2''-terpyridine]",fold induction at 20 µg/mL,[1]; ratio to DMSO control = 1.0,2.6
same,fold induction at 100 µg/mL,[1]; ratio to DMSO control = 1.0,2.2
same,viability at 2 µg/mL,[2]; [3],180%
same,viability at 10 µg/mL,[2]; [3],130%
same,viability at 2 µg/mL,[2]; [4],170%
same,viability at 10 µg/mL,[2]; [4],50%
"Cc1ccccc1-c1cc(-c2ccccn2)nc(-c2ccccn2)c1 [Compound 3, 4'-(2-Methylphenyl)-2,2':6',2''-terpyridine]",fold induction at 2 µg/mL,[1]; [5],1.5
same,fold induction at 10 µg/mL,[1]; ratio to DMSO control = 1.0,2.9
same,viability at 2 µg/mL,[2]; [3],240%
same,viability at 10 µg/mL,[2]; [3],150%
same,viability at 2 µg/mL,[2]; [4],280%
same,viability at 10 µg/mL,[2]; [4],140%
"Cc1cccc(-c2cc(-c3ccccn3)nc(-c3ccccn3)c2)c1 [Compound 4, 4'-(3-Methylphenyl)-2,2':6',2''-terpyridine]",fold induction at 2 µg/mL,[1]; [5],1.8
same,fold induction at 10 µg/mL,[1]; ratio to DMSO control = 1.0,1.3
same,fold induction at 50 µg/mL,[1]; [6],1.2
same,viability at 2 µg/mL,[2]; [3],170%
same,viability at 2 µg/mL,[2]; [4],180%
"CCc1ccc(-c2cc(-c3ccccn3)nc(-c3ccccn3)c2)cc1 [Compound 7, 4'-(4-Ethylphenyl)-2,2':6',2''-terpyridine]",fold induction at 2 µg/mL,[1]; [5],2.9
same,fold induction at 10 µg/mL,[1]; ratio to DMSO control = 1.0,1
same,fold induction at 50 µg/mL,[1]; [6],1.2
"CC(C)c1ccc(-c2cc(-c3ccccn3)nc(-c3ccccn3)c2)cc1 [Compound 8, 4'-(4-Isopropylphenyl)-2,2':6',2''-terpyridine]",fold induction at 2 µg/mL,[1]; [5],1.7
same,fold induction at 10 µg/mL,[1]; ratio to DMSO control = 1.0,3.2
same,fold induction at 50 µg/mL,[1]; [6],2.4
"Clc1ccc(-c2cc(-c3ccccn3)nc(-c3ccccn3)c2)cc1 [Compound 11, 4'-(4-Chlorophenyl)-2,2':6',2''-terpyridine]",fold induction at 5 µg/mL,[1]; ratio to DMSO control = 1.0,4.7
same,fold induction at 17 µg/mL,"[1]; 17 µg/ml, ratio to DMSO control = 1.0",3.4
same,fold induction at 50 µg/mL,[1]; [6],2.2
same,viability at 2 µg/mL,[2]; [3],170%
same,viability at 10 µg/mL,[2]; [3],130%
same,viability at 2 µg/mL,[2]; [4],160%
same,viability at 10 µg/mL,[2]; [4],140%
"Oc1ccccc1-c1cc(-c2ccccn2)nc(-c2ccccn2)c1 [Compound 12, 2-(2,2':6',2''-Terpyridin-4'-yl)phenol]",fold induction at 20 µg/mL,[1]; ratio to DMSO control = 1.0,3.7
same,fold induction at 100 µg/mL,[1]; ratio to DMSO control = 1.0,3
"COc1ccc(-c2cc(-c3ccccn3)nc(-c3ccccn3)c2)cc1 [Compound 13, 4'-(4-Methoxyphenyl)-2,2':6',2''-terpyridine]",fold induction at 20 µg/mL,[1]; ratio to DMSO control = 1.0,1.7
same,fold induction at 100 µg/mL,[1]; ratio to DMSO control = 1.0,1.8
same,viability at 2 µg/mL,[2]; [3],180%
same,viability at 2 µg/mL,[2]; [4],70%
"CCOc1ccc(-c2cc(-c3ccccn3)nc(-c3ccccn3)c2)cc1 [Compound 14, 4'-(4-Ethoxyphenyl)-2,2':6',2''-terpyridine]",fold induction at 2 µg/mL,[1]; [5],2.1
same,fold induction at 10 µg/mL,[1]; ratio to DMSO control = 1.0,4.8
same,fold induction at 50 µg/mL,[1]; [6],2.9
"OCCOc1ccc(-c2cc(-c3ccccn3)nc(-c3ccccn3)c2)cc1 [Compound 15, 2-[4-(2,2':6',2''-Terpyridin-4'-yl)phenoxy]ethanol]",fold induction at 20 µg/mL,[1]; ratio to DMSO control = 1.0,1.7
same,fold induction at 100 µg/mL,[1]; ratio to DMSO control = 1.0,4.2
"O=[N+]([O-])c1cccc(-c2cc(-c3ccccn3)nc(-c3ccccn3)c2)c1 [Compound 17, 4'-(3-Nitrophenyl)-2,2':6',2''-terpyridine]",fold induction at 20 µg/mL,[1]; ratio to DMSO control = 1.0,1
same,fold induction at 100 µg/mL,[1]; ratio to DMSO control = 1.0,2.8
"Nc1cccc(-c2cc(-c3ccccn3)nc(-c3ccccn3)c2)c1 [Compound 18, 4'-(3-Aminophenyl)-2,2':6',2''-terpyridine]",fold induction at 10 µg/mL,[1]; ratio to DMSO control = 1.0,5.7
same,fold induction at 30 µg/mL,[1]; ratio to DMSO control = 1.0,2
same,fold induction at 100 µg/mL,[1]; ratio to DMSO control = 1.0,4.6
same,viability at 2 µg/mL,[2]; [3],110%
same,viability at 2 µg/mL,[2]; [4],140%
"O=C(O)c1ccc(-c2cc(-c3ccccn3)nc(-c3ccccn3)c2)cc1 [Compound 19, 4-(2,2':6',2''-Terpyridin-4'-yl)benzoic acid]",fold induction at 2 µg/mL,[1]; [5],2.4
same,fold induction at 10 µg/mL,[1]; ratio to DMSO control = 1.0,2.4
same,fold induction at 50 µg/mL,[1]; [6],3.6
"BrCc1ccc(-c2cc(-c3ccccn3)nc(-c3ccccn3)c2)cc1 [Compound 21, 4'-(4-Bromomethylphenyl)-2,2':6',2''-terpyridine]",fold induction at 20 µg/mL,[1]; ratio to DMSO control = 1.0,2.7
same,fold induction at 100 µg/mL,[1]; ratio to DMSO control = 1.0,5.2
same,viability at 2 µg/mL,[2]; [3],140%
same,viability at 2 µg/mL,[2]; [4],200%
"c1ccc(-c2cc(-c3ccc(Cn4cccc4)cc3)cc(-c3ccccn3)n2)nc1 [Compound 22, 4'-[4-(1-pyrrorylmethyl)phenyl]-2,2':6',2''-terpyridine]",fold induction at 2 µg/mL,[1]; [5],1.7
same,fold induction at 10 µg/mL,[1]; ratio to DMSO control = 1.0,1.1
same,viability at 2 µg/mL,[2]; [3],120%
same,viability at 10 µg/mL,[2]; [3],170%
same,viability at 2 µg/mL,[2]; [4],100%
same,viability at 10 µg/mL,[2]; [4],180%
"C[N+](C)(C)Cc1ccc(-c2cc(-c3ccccn3)nc(-c3ccccn3)c2)cc1 [Compound 23, N,N,N-Trimethyl-N-[4-(2,2':6',2''-terpyridin-4'-yl)phenylmethyl]ammonium bromide]",fold induction at 10 µg/mL,[1]; ratio to DMSO control = 1.0,3.2
same,fold induction at 30 µg/mL,[1]; ratio to DMSO control = 1.0,5.6
same,fold induction at 100 µg/mL,[1]; ratio to DMSO control = 1.0,1.3
same,viability at 2 µg/mL,[2]; [3],250%
same,viability at 10 µg/mL,[2]; [3],130%
same,viability at 2 µg/mL,[2]; [4],300%
same,viability at 10 µg/mL,[2]; [4],160%
"CCCCCCCCCCCC[N+](C)(C)Cc1ccc(-c2cc(-c3ccccn3)nc(-c3ccccn3)c2)cc1 [Compound 24, N-Dodecyl-N,N-dimethyl-N-[4-(2,2':6',2''-terpyridin-4'-yl)phenylmethyl]ammonium bromide]",fold induction at 2 µg/mL,[1],2.1
same,fold induction at 50 µg/mL,[1],1
same,viability at 2 µg/mL,[2]; [3],200%
same,viability at 2 µg/mL,[2]; [4],190%
"c1cc[n+](Cc2ccc(-c3cc(-c4ccccn4)nc(-c4ccccn4)c3)cc2)cc1 [Compound 25, 1-[4-(2,2':6',2''-Terpyridin-4'-yl)phenylmethyl]pyridinium bromide]",fold induction at 2 µg/mL,[1]; [5],1.2
same,fold induction at 10 µg/mL,[1]; ratio to DMSO control = 1.0,1.1
same,fold induction at 50 µg/mL,[1]; [6],2.9
same,viability at 2 µg/mL,[2]; [3],140%
same,viability at 2 µg/mL,[2]; [4],110%
"CCCCCCCCCc1cc[n+](Cc2ccc(-c3cc(-c4ccccn4)nc(-c4ccccn4)c3)cc2)cc1 [Compound 26, 4-Nonyl-1-[4-(2,2':6',2''-terpyridin-4'-yl)phenylmethyl]pyridinium bromide]",fold induction at 20 µg/mL,[1]; ratio to DMSO control = 1.0,3
same,fold induction at 100 µg/mL,[1]; ratio to DMSO control = 1.0,3
same,viability at 2 µg/mL,[2]; [3],160%
same,viability at 10 µg/mL,[2]; [3],140%
same,viability at 2 µg/mL,[2]; [4],140%
same,viability at 10 µg/mL,[2]; [4],130%
"CCCCCCCCCCCCCCCCCc1cc[n+](Cc2ccc(-c3cc(-c4ccccn4)nc(-c4ccccn4)c3)cc2)cc1 [Compound 27, 4-Heptadecyl-1-[4-(2,2':6',2''-terpyridin-4'-yl)phenylmethyl]pyridinium bromide]",fold induction at 20 µg/mL,[1]; ratio to DMSO control = 1.0,1
same,fold induction at 100 µg/mL,[1]; ratio to DMSO control = 1.0,1.2
same,viability at 2 µg/mL,[2]; [3],200%
same,viability at 10 µg/mL,[2]; [3],190%
same,viability at 2 µg/mL,[2]; [4],150%
same,viability at 10 µg/mL,[2]; [4],200%
"CCCCCCCCC(CCCCCCCC)c1cc[n+](Cc2ccc(-c3cc(-c4ccccn4)nc(-c4ccccn4)c3)cc2)cc1 [Compound 28, 4-(1-Octylnonyl)-1-[4-(2,2':6',2''-terpyridin-4'-yl)phenylmethyl]pyridinium bromide]",fold induction at 20 µg/mL,[1]; ratio to DMSO control = 1.0,3.6
same,fold induction at 100 µg/mL,[1]; ratio to DMSO control = 1.0,2.5
same,viability at 2 µg/mL,[2]; [3],260%
same,viability at 10 µg/mL,[2]; [3],130%
same,viability at 2 µg/mL,[2]; [4],310%
same,viability at 10 µg/mL,[2]; [4],380%

# From patent publication EP0677293A1, “PHARMACEUTICAL USE OF TERPYRIDINE DERIVATIVE” (priority 1992, dated 1994)
